Assay results reported in patent publication US7767659B2, “Synthesis of naturally occurring ecteinascidins and related compounds” (Pharma Mar, S.A., priority 2002, dated 2010).

What was measured:
A-549 = assay: cells; settings: A549, SRB, 48 hours exposure
Protocol: (§1) This form of the assay employs 96 well cell culture microplates of 9 mm diameter (Faircloth, 1988; Mosmann, 1983). Most of the cell lines are obtained from American Type Culture Collection (ATCC) derived from different human cancer types.
(§2) Cells are maintained in RPMI 1640 10% FBS, supplemented with 0.1 g/l penicillin and 0.1 g/l streptomycin sulfate and then incubated at 37° C., 5% CO2 and 98% humidity. For the experiments, cells were harvested from subconfluent cultures using trypsin and resuspended in fresh medium before plating.
(§3) Cells are seeded in 96 well microtiter plates, at 5×10^3 cells per well in aliquots of 195 μl medium, and they are allowed to attach to the plate surface by growing in drug free medium for 18 hours. Afterward, samples are added in aliquots of 5 μl in a ranging from 10 to 10^−8 μg/ml, dissolved in DMSO/EtOH/PBS (0.5:0.5:99). After 48 hours exposure, the antitumor effect are measured by the SRB methodology: cells are fixed by adding 50 μl of cold 50% (wt/vol) trichloroacetic acid (TCA) and incubating for 60 minutes at 4° C. Plates are washed with deionized water and dried. One hundred μl of SRB solution (0.4% wt/vol in 1% acetic acid) is added to each microtiter well and incubated for 10 minutes at room temperature. Unbound SRB is removed by washing with 1% acetic acid. Plates are air dried and bound stain is solubilzed with Tris buffer. Optical densities are read on a automated spectrophotometric plate reader at a single wavelength of 490 nm.
(§4) The values for mean +/− SD of data from triplicate wells are calculated. Some parameters for cellular responses can be calculated: GI=growth inhibition, TGI=total growth inhibition (cytostatic effect) and LC=cell killing (cytotoxic effect).

HT-29 = assay: cells; settings: HT29, SRB, 48 hours exposure
Protocol: as §1, §2, §3, §4

LoVo = assay: cells; settings: LOVO, SRB, 48 hours exposure
Protocol: as §1, §2, §3, §4

DU-145 = assay: Inhibition of cells growth by colorimetric assay (SRB); settings: DU145, SRB, 48 hours exposure
Protocol: as §1, §2, §3, §4

HeLa-APL = assay: as above; settings: HELA-APL, SRB, 48 hours exposure
Protocol: as §1, §2, §3, §4

HeLa = assay: as above; settings: HELA, SRB, 48 hours exposure
Protocol: as §1, §2, §3, §4

IGROV-1 = assay: as above; settings: IGROV, SRB, 48 hours exposure
Protocol: as §1, §2, §3, §4

IGROV-ET = assay: as above; settings: IGROV-ET, SRB, 48 hours exposure
Protocol: as §1, §2, §3, §4

K-562 = assay: as above; settings: K562, SRB, 48 hours exposure
Protocol: as §1, §2, §3, §4

LNCaP = assay: as above; settings: LNCAP, SRB, 48 hours exposure
Protocol: as §1, §2, §3, §4

LoVo-Dox = assay: as above; settings: LOVO-DOX, SRB, 48 hours exposure
Protocol: as §1, §2, §3, §4

PANC-1 = assay: as above; settings: PANC-1, SRB, 48 hours exposure
Protocol: as §1, §2, §3, §4

SK-BR-3 = assay: as above; settings: SK-BR3, SRB, 48 hours exposure
Protocol: as §1, §2, §3, §4

SK-MEL-28 = assay: as above; settings: MEL-28, SRB, 48 hours exposure
Protocol: as §1, §2, §3, §4

For `COC1=C(C)C(=O)C2=C(C1=O)C1C3C4SCC(NC(C)=O)C(=O)OCC(c5c6c(c(C)c(OC(C)=O)c54)OCO6)N3C(O)C(C2)N1C` (stereo not shown) [ET-637-quinone, ecteinascidin 637 quinone], the “A549 TGI” value (A-549) was 1.09E−08 Molar, the GI50 (A-549; read-out: A549 GI50) was 4.42 nM and the CC50 (A-549; read-out: A549 LC50) was 51.5 nM. The “HT29 TGI” value (HT-29) was 7.78E−09 Molar, the GI50 (HT-29; read-out: HT29 GI50) was 3.32 nM and the CC50 (HT-29; read-out: HT29 LC50) was 2260 nM. For the same compound, the “LOVO TGI” value (LoVo) was 8.51E−09 Molar, the GI50 (LoVo; read-out: LOVO GI50) was 3.98 nM and the CC50 (LoVo; read-out: LOVO LC50) was 6080 nM. The “DU145 TGI” value (DU-145) was 6.30E−09 Molar, the GI50 (DU-145; read-out: DU145 GI50) was 3.74 nM and the CC50 (DU-145; read-out: DU145 LC50) was 15.3 nM. The “HELA-APL TGI” value (HeLa-APL) was 5.12E−09 Molar, the GI50 (HeLa-APL; read-out: HELA-APL GI50) was 2.39 nM and the CC50 (HeLa-APL; read-out: HELA-APL LC50) was 10.9 nM. For the same compound, the “HELA TGI” value (HeLa) was 4.88E−09 Molar, the GI50 (HeLa; read-out: HELA GI50) was 2.24 nM and the CC50 (HeLa; read-out: HELA LC50) was 10.6 nM. For the same compound, the “IGROV TGI” value (IGROV-1) was 5.80E−09 Molar, the GI50 (IGROV-1; read-out: IGROV GI50) was 2.76 nM and the CC50 (IGROV-1; read-out: IGROV LC50) was 12.1 nM. The “IGROV-ET TGI” value (IGROV-ET) was 6.91E−08 Molar, the GI50 (IGROV-ET; read-out: IGROV-ET GI50) was 34.2 nM and the CC50 (IGROV-ET; read-out: IGROV-ET LC50) was 139 nM. For the same compound, the “K562 TGI” value (K-562) was 1.97E−09 Molar, the CC50 (K-562; read-out: K562 LC50) was 14.4 nM and the “LNCAP TGI” value (LNCaP) was 3.64E−09 Molar. The GI50 (LNCaP; read-out: LNCAP GI50) was 1.78 nM, the CC50 (LNCaP; read-out: LNCAP LC50) was 7.44 nM and the “LOVO-DOX TGI” value (LoVo-Dox) was 9.62E−07 Molar. The GI50 (LoVo-Dox; read-out: LOVO-DOX GI50) was 262 nM, the CC50 (LoVo-Dox; read-out: LOVO-DOX LC50) was 90 nM and the “PANC-1 TGI” value (PANC-1) was 8.24E−09 Molar. The GI50 (PANC-1; read-out: PANC-1 GI50) was 3.72 nM, the CC50 (PANC-1; read-out: PANC-1 LC50) was 3.42 nM and the “SK-BR3 TGI” value (SK-BR-3) was 2.67E−09 Molar. The CC50 (SK-BR-3; read-out: SK-BR3 LC50) was 8.51 nM, the “MEL-28 TGI” value (SK-MEL-28) was 5.34E−09 Molar and the GI50 (SK-MEL-28; read-out: MEL-28 GI50) was 2.96 nM. For the same compound, the CC50 (SK-MEL-28; read-out: MEL-28 LC50) was 9.61 nM.
